Test results from the supplement of paper PMC6045584.

Experiments:
Assay in all cases: area under dose-response curve of surviving fraction (unscaled, Aref=0) (surviving fraction x log10(nM)); higher = more resistant
Settings in all cases: exposure time: 5 days; dose range 0.5-1000 nM
[1] = compound: O=C(NOCC1CC1)c1ccc(F)c(F)c1Nc1ccc(I)cc1Cl
Summary of the method: (§1)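 Each tumour cell line was screened three times in 384-well plates, receiving eight inhibitor concentrations from 0.5 to 1000 nM for five days. CellTiter-Glo luminescence gave viability, normalised to DMSO-only wells. Using the drc R package, surviving fractions were fitted with 3-parameter logistic dose-response curves, and the unscaled activity area over log10 dose (Aref = 0) was taken as the area under the curve.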

[2] = compound: NC1(c2ccc(-c3nc4ccn5c(=O)[nH]nc5c4cc3-c3ccccc3)cc2)CCC1 [MK2206]
Summary of the method: as §1

[3] = compound: C#Cc1cccc(Nc2ncnc3cc(OCCOC)c(OCCOC)cc23)c1 [ERLOTINIB]
Summary of the method: as §1

[4] = compound: CCCS(=O)(=O)Nc1ccc(F)c(C(=O)c2c[nH]c3ncc(Cl)cc23)c1F [PLX-4720]
Summary of the method: as §1

[5] = compound: CO[C@H]1C[C@@H]2CC[C@@H](C)[C@@](O)(O2)C(=O)C(=O)N2CCCC[C@H]2C(=O)O[C@H]([C@H](C)C[C@@H]2CC[C@@H](OCCO)[C@H](OC)C2)CC(=O)[C@H](C)/C=C(\C)[C@@H](O)[C@@H](OC)C(=O)[C@H](C)C[C@H](C)/C=C/C=C/C=C/1C [EVEROLIMUS]
Summary of the method: as §1

[6] = compound: CCC1=C[C@@H]2CN(C1)Cc1c([nH]c3ccccc13)[C@@](C(=O)OC)(c1cc3c(cc1OC)N(C)[C@H]1[C@@](O)(C(=O)OC)[C@H](OC(C)=O)[C@]4(CC)C=CCN5CC[C@]31[C@@H]54)C2 [VINORELBINE]
Summary of the method: as §1

[7] = compound: CCN(CC)CCNC(=O)c1c(C)[nH]c(/C=C2\C(=O)Nc3ccc(F)cc32)c1C [SUNITINIB]
Summary of the method: as §1

[8] = compound: Nc1ccn([C@@H]2O[C@H](CO)[C@@H](O)C2(F)F)c(=O)n1 [GEMCITABINE]
Summary of the method: as §1

[9] = compound: CN(Cc1cnc2nc(N)nc(N)c2n1)c1ccc(C(=O)N[C@@H](CCC(=O)O)C(=O)O)cc1 [METHOTREXATE]
Summary of the method: as §1

[10] = compound: COc1cc([C@@H]2c3cc4c(cc3[C@@H](O[C@@H]3O[C@@H]5CO[C@@H](C)O[C@H]5[C@H](O)[C@H]3O)[C@H]3COC(=O)[C@H]23)OCO4)cc(OC)c1O [ETOPOSIDE]
Summary of the method: as §1

[11] = compound: Cc1nc(Nc2n[nH]c3c2CN(C(=O)N[C@H](CN(C)C)c2ccccc2)C3(C)C)c2sccc2n1
Summary of the method: as §1

[12] = compound: COc1cc(CCc2cc(NC(=O)c3ccc(N4CC(C)NC(C)C4)cc3)n[nH]2)cc(OC)c1 [AZD4547]
Summary of the method: as §1

[13] = compound: O=C(O)CC[C@H]1CC[C@@](c2cc(F)ccc2F)(S(=O)(=O)c2ccc(Cl)cc2)CC1 [MK0752]
Summary of the method: as §1

Row | Test System | area under dose-response curve [1] | area under dose-response curve [2] | area under dose-response curve [3] | area under dose-response curve [4] | area under dose-response curve [5] | area under dose-response curve [6] | area under dose-response curve [7] | area under dose-response curve [8] | area under dose-response curve [9] | area under dose-response curve [10] | area under dose-response curve [11] | area under dose-response curve [12] | area under dose-response curve [13]
1 | ASKA SYNOVIAL | 3.28 | 2.71 | 3.77 | 3.2 | 2.28 | 1.36 | 2.07 | 1.03 | 3.77 | 2.38 | 2.66 |  | 
2 | BT20 BREAST | 3.11 | 3.76 | 3.67 | 3 | 1.35 | 1.54 | 2.95 | 1.55 | 3.51 | 2.9 | 2.78 | 3.58 | 
3 | BT549 BREAST |  | 2.87 | 3.57 | 3.1 |  | 1.62 | 3.02 | 1.03 | 1.9 | 2.79 | 1 | 3.46 | 
4 | CME SYNOVIAL | 3.27 | 4.03 |  | 3.17 |  | 2.33 | 2.09 | 1.25 | 2.37 | 2.46 | 3.07 |  | 4.45
5 | HCC202 BREAST | 4.68 |  |  | 3.8 |  | 1.85 | 3.12 |  |  |  | 2.16 | 3.81 | 
6 | HCC1806 BREAST |  |  |  | 2.86 | 2.74 | 1.33 | 2.29 | 0.258 | 1.55 | 2.5 | 0.463 | 3.6 | 3.93
7 | HMLE3 BREAST | 2.57 | 2.97 |  | 2.8 | 2.01 | 1.81 | 2.08 | 1.1 | 2.58 | 2.53 | 0.944 | 2.25 | 
8 | HMT3552 BREAST |  | 3.05 | 3.18 |  | 1.98 |  |  | 2.53 | 2.25 |  |  |  | 
9 | HU09 BONE |  | 2.59 |  | 3.1 |  | 1.47 | 1.9 | 0.594 | 2.42 | 2.6 | 1.37 | 2.88 | 3.54
10 | JURKAT HAEMATOPOIETIC AND LYMPHOID TISSUE |  | 2.74 |  | 3.23 | 1.76 | 1.24 | 3.06 | 1.01 | 1.35 | 2.15 | 0.653 |  | 3.4
11 | MDAMB157 BREAST | 2.81 |  | 3.29 | 3.07 | 2.25 | 1.41 | 2.52 |  | 3.15 | 2.68 | 1.55 | 2.38 | 
12 | MG63 BONE | 3.12 | 3.13 |  | 3.07 | 2.17 | 1.86 | 2.72 | 1.03 | 2.15 | 3.13 | 1.34 | 2.57 | 
13 | NCIH441 LUNG | 2.98 | 3.53 |  | 3.08 |  | 2.25 | 3.25 | 0.954 |  | 2.86 | 1.92 |  | 3.43
14 | NOS1 BONE |  | 2.74 |  | 3.29 | 1.75 | 1.92 | 1.78 | 2.31 | 3.88 |  | 1.98 | 2.71 | 
15 | OSHN BONE | 3.24 | 3.58 | 3.68 | 3.06 | 3.41 | 1.83 | 3.18 |  | 1.28 | 3 | 1.67 | 3.57 | 
16 | SAOS2 BONE | 3.22 | 3.03 |  | 3.06 | 3.1 | 1.6 | 2.75 | 0.983 |  | 3.15 | 1.41 |  | 3.89
17 | SCC36 HEADNECK |  | 2.91 | 2.92 | 2.88 | 3.13 | 1.6 | 2.53 | 2.34 | 2.83 |  | 0.887 |  | 
18 | SCC47 HEADNECK | 2.91 | 3.26 |  | 3.12 | 3.2 | 1.84 | 3.14 | 2.22 | 2.96 | 3.17 | 1.99 | 3.44 | 
19 | SCC90 HEADNECK | 2.18 | 3.03 | 2.89 | 3.12 | 2.09 | 1.52 | 3.19 | 1.46 | 2.81 | 3.67 | 1.7 | 3.57 | 
20 | SG27 HEADNECK |  |  | 3.58 | 2.98 | 3.13 | 3.81 | 3.67 | 3.22 |  | 3.45 | 1.72 | 2.8 | 
21 | SG28 HEADNECK | 2.72 |  |  | 2.51 |  | 2.47 | 2.12 |  |  | 3.66 | 2.12 |  | 3.56
22 | SG31 HEADNECK | 2.78 |  |  | 2.73 | 2.18 | 2.07 | 2.47 | 2.51 | 3.94 |  | 2.15 | 3.1 | 3.35
23 | SIHA CERVIX | 2.76 | 3.01 |  | 3.18 | 2.23 | 2.25 | 3.13 | 2.4 | 2.99 |  | 1.55 | 3.02 | 3.79
24 | SUM149 BREAST | 2.25 | 3.19 | 2.76 |  | 1.67 | 1.46 | 2.12 | 0.539 | 2.98 | 2.41 | 1.13 |  | 
25 | SUM159 BREAST | 2.75 | 3.58 | 3.56 |  | 2.88 | 1.98 | 3.06 | 1.68 | 3.2 | 2.91 | 2.39 | 3.84 | 
26 | VP229 BREAST |  |  | 2.92 | 3.1 | 1.96 | 2 | 2.41 | 1.97 | 3.77 | 3.78 | 1.92 |  | 
27 | ZR751 BREAST | 2.56 | 1.96 |  | 2.73 | 1.57 | 1.87 | 3.62 | 2.02 | 2.86 |  | 1.83 | 3.05 | 3.79
